Results: US10072249B2, “Method of inducing kidney from pluripotent stem cells” (NATIONAL UNIVERSITY CORPORATION KUMAMOTO UNIVERSITY, priority 2013, dated 2018)

Legend:
[1] = test system: Osr1-GFP+ cells from the caudal part of E9.5 embryos; test: Culture of sorted E9.5 posterior Osr1-GFP+ cell aggregates, then colony-formation assay on Wnt4 feeder cells; assay type: cell-based, mouse
Protocol: In vitro colony-formation assays were performed as described previously (Osafune et al., 2006). Briefly, progenitor cells were sorted by a FACS Aria II (Becton Dickinson) and plated onto NIH3T3 cells stably expressing Wnt4 at a low density (1,250-10,000 cells/well of 6-well plates). The cells were then cultured in DMEM/F12 containing 5% knockout serum replacement (Invitrogen), 10 μg/ml insulin, 6.7 μg/1 sodium selenite, 5.5 μg/ml transferrin, 1×10^−7 mol/l dexamethasone, 10 mmol/l nicotinamide, 2 mmol/l L-glutamine, 50 μmol/l 2-mercaptoethanol, 5 mmol/l HEPES and penicillin/streptomycin.
For embryonic tissue cultures at E8.5, the presomitic regions of 6-10 somite-stage embryos were harvested and T-GFP+ cells were sorted by FACS. The sorted cells were aggregated at 7,000 cells per aggregate in 96-well low-cell-binding plates and cultured in serum-free chemically-defined medium. In the embryonic tissue cultures at E9.5, the posterior regions from the 23rd somite region of 22-26 somite-stage embryos were harvested and Osr1-GFP+ or Wt1-GFP+ cells were sorted by FACS. The sorted cells were aggregated at 10,000 cells per aggregate in 96-well low-cell-binding plates and cultured in serum-free chemically-defined medium.
Induced cell aggregates from embryonic tissues or ES cells were dissociated by incubation with 0.25% trypsin for 5 min. After blocking in normal mouse serum (Thermo Scientific), cell surface marker staining was carried out in buffer comprising 1% bovine serum albumin, 1×HBSS and 0.035% NaHCO3. Data were analyzed with FlowJo software (Treestar).
RNA was isolated using an RNeasy Plus Micro Kit (Qiagen), and then reverse-transcribed with random primers and Superscript III (Invitrogen). Quantitative PCR was carried out using a Real-Time PCR System (Applied Biosystems) and Thunderbird SYBR qPCR Mix (Toyobo). All samples were normalized by the β-actin expression using the relative standard curve method.
To test the hypothesis, Osr1-GFP+ cells from the caudal part of E9.5 embryos were sorted, and were plated into low-cell-binding plates in the presence of the Rho kinase inhibitor Y27632, which supports cell survival. The cells spontaneously re-aggregated and formed spheres within 24 h.

Osr1-GFP ES cell line = test: Induction of metanephric nephron progenitors from mouse ES cells; assay type: cell-based; details: low concentration, 24 h after 2 days of EB formation
Protocol: Mouse ES cells (Osr1-GFP) were maintained on murine embryonic fibroblasts in DMEM (Invitrogen) supplemented with 15% fetal calf serum, 0.1 mM 2-mercaptoethanol (Nacalai Tesque) and 1,000 U/ml leukemia inhibitory factor (ESGRO). EB3-DsRed cells, gifts from Dr. Hitoshi Niwa (CDB RIKEN), were maintained as reported previously (Usui et al., Am. J. Pathol. 180, 2417-2426, 2012). Before the initiation of differentiation, the ES cells were passaged once onto feeder cell-free gelatin-coated dishes in DMEM (Invitrogen) supplemented with 15% fetal bovine serum, 0.1 mM 2-mercaptoethanol, 1,000 U/ml leukemia inhibitory factor, 3 μM CHIR99021 (Wako) and 1 μM PD0325901 (Wako). ES cell differentiation was carried out in serum-free medium as follows. […]
RNA was isolated using an RNeasy Plus Micro Kit (Qiagen), and then reverse-transcribed with random primers and Superscript III (Invitrogen). Quantitative PCR was carried out using a Real-Time PCR System (Applied Biosystems) and Thunderbird SYBR qPCR Mix (Toyobo). […]

[2] = exogenous addition to aggregate culture

In the case of `C[C@@H](N)[C@H]1CC[C@H](C(=O)Nc2ccncc2)CC1` [Y27632], the “expressions of Pax2, Six2 and Gdnf compared with the starting point” value ([1]; 48 h of culture of aggregates in low-cell-binding plates) is reported as “more than 10 fold” and the “Osr1+/Itga8+/Pdgfra− population (FACS)” value ([1]; cultured aggregates) is reported as 10.0±0.01 % of the total cells.

In the case of `Cc1c[nH]c(-c2cnc(NCCNc3ccc(C#N)cn3)nc2-c2ccc(Cl)cc2Cl)n1` [CHIR99021, 6-[[2-[[4-(2,4-dichlorophenyl)-5-(4-methyl-1H-imidazol-2-yl)-2-pyrimidinyl]amino]ethyl]amino]nicotinonitrile], the “induction of colony-forming progenitors and nephric gene expressions” value (“induction” below) ([1]; high concentrations, 3 or 10 μM) is reported as “inhibitory” and the colony formation ([1]; low concentration, 1 μM) is reported as “slightly improved”.

B1: activin: human activin A growth factor (R&D Systems) (protein, UniProt P08476 311-426, looked up)
Inhibin beta A chain: GLECDGKVNICCKKQFFVSFKDIGWNDWIIAPSGYHANYCEGECPSHIAGTSGSSLSFHSTVINHYRMRGHSPFANLKSCCVPTKLRPMSMLYYDDGQNIIKKDIQNMIVEECGCS
modifications: Inhibin beta A chain
In the case of B1, the “induction” value [1, 2] is reported as “inhibitory” and the “expression of the epiblast marker Fgf5” value (Osr1-GFP ES cell line) is reported as “induced transient expression”.

B2: Bmp4: human Bmp4 growth factor (R&D Systems) (protein, UniProt P12644 293-408, looked up)
Bone morphogenetic protein 4: SPKHHSQRARKKNKNCRRHSLYVDFSDVGWNDWIVAPPGYQAFYCHGDCPFPLADHLNSTNHAIVQTLVNSVNSSIPKACCVPTELSAISMLYLDEYDKVVLKNYQEMVVEGCGCR
In the case of B2, the “induction” value [1, 2] is reported as “inhibitory”.
